Data reported in patent US20030166932A1 (priority 2002, published 2003).

Tests used:
[1] = target: T1, RXRγ (UniProt P28705); experiment: holoreceptor transactivation assay; type: cell-based; conditions: for EC50: NA = Not Active, read-out: RXR Trans. EC50 (nM) Y; for % efficacy, RXR Trans. Y: relative to 10^−6 M AGN 194204
T1 sequence (P28705 1-463): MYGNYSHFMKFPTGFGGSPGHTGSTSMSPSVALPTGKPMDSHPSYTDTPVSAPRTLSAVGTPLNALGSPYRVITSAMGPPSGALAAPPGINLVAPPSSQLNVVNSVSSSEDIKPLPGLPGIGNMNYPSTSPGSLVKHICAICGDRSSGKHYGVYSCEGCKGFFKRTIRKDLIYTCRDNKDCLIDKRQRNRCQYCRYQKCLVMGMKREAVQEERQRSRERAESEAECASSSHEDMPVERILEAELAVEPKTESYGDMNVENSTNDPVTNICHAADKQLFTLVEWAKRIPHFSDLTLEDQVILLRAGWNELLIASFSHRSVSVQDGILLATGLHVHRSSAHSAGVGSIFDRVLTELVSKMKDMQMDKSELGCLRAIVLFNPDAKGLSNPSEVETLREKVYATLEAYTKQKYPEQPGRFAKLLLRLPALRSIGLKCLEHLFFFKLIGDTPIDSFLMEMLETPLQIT
Text: (§1) The results obtained in this assay are expressed in EC50 numbers, as they are also in the chimeric receptor transactivation assay. The results of ligand binding assay are expressed in Kd numbers.
(§2) Particularly, the transactivation data pertaining to RAR receptors were obtained in the chimeric assay, and the data pertaining to transactivation of RXR receptors were obtained in the holoreceptor transactivation assay.

[2] = target: T2, RXRα (Homo sapiens, UniProt P19793); experiment: ligand binding assay
T2 sequence (P19793 1-462): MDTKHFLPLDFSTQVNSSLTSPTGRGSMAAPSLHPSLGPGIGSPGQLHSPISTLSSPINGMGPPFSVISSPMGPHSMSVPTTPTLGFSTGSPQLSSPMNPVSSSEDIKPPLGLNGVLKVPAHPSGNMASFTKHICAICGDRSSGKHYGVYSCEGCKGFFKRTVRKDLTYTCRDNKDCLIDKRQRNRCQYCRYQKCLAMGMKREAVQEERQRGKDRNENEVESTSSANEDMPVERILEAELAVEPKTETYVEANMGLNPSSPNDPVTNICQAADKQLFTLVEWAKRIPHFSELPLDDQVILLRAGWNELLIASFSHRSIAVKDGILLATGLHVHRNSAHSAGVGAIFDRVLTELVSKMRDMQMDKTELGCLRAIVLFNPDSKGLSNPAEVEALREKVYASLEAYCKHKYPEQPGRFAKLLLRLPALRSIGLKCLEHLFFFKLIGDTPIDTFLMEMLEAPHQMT
Text: as §1, §2

[3] = target: T3, RXRβ (UniProt P28704); experiment: ligand binding assay; conditions: read-out: RXR Bind Ki (nM) β
T3 sequence (P28704 1-520): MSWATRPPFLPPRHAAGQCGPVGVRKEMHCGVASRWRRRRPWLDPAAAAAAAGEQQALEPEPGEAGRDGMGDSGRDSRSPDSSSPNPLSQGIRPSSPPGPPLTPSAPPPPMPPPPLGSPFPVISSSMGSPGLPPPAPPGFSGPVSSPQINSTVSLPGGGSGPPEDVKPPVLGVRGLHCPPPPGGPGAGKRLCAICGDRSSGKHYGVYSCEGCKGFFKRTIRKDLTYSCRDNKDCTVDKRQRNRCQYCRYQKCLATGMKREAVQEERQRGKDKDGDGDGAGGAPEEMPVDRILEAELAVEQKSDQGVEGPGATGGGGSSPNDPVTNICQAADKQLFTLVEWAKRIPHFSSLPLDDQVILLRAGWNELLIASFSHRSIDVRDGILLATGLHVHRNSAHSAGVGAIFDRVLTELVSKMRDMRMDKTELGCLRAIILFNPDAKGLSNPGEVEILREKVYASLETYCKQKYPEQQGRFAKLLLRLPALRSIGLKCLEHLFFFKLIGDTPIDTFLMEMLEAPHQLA
Text: as §1, §2

[4] = target: T4, RARβ (Homo sapiens, UniProt P10826); experiment: ligand binding assay; conditions: read-out: RAR Bind. Ki (nM) β
T4 sequence (P10826 1-455): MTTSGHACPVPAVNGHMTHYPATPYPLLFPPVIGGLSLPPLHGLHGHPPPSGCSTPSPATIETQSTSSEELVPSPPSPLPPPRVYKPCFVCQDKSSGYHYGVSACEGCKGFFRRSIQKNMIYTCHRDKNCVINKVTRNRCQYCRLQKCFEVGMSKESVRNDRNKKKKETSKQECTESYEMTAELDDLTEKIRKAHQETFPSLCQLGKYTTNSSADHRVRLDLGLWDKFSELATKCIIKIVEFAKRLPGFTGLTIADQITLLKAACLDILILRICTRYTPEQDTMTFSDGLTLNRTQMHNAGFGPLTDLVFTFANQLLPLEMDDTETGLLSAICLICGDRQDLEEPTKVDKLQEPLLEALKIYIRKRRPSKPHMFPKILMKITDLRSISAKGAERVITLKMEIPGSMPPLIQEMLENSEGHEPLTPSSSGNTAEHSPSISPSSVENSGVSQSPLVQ
Text: as §1, §2

[5] = target: T5, RARγ (Homo sapiens, UniProt P13631); experiment: ligand binding assay; conditions: read-out: RAR Bind. Ki (nM) Y
T5 sequence (P13631 1-454): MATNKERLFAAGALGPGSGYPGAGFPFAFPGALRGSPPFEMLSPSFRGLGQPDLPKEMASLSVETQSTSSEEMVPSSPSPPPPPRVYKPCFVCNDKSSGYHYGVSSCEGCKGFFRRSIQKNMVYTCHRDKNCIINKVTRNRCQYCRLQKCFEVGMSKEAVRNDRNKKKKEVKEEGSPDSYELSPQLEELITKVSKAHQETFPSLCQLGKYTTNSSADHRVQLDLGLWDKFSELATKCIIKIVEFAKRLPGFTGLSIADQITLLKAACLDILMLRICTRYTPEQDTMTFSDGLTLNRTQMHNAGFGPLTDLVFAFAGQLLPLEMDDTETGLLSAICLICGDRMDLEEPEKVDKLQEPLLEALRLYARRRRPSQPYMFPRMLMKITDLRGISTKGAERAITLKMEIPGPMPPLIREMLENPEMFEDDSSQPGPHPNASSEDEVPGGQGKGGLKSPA
Text: as §1, §2

[6] = target: T2, RXRα; experiment: holoreceptor transactivation assay; conditions: for Emax: read-out: % efficacy, RXR Trans. α
Text: as §1, §2

[7] = target: T3, RXRβ; experiment: holoreceptor transactivation assay; type: cell-based; conditions: for EC50: NA = Not Active, read-out: RXR Trans. EC50 (nM) β; for % efficacy, RXR Trans. β: relative to 10^−6 M AGN 194204
Text: as §1, §2

| EC50 [1] [nM] | Ki [3] [nM] | Ki [5] [nM] | SMILES | % efficacy, RXR Trans. Y [1] | Ki [2] [nM] | Ki [4] [nM] | EC50 [6] [nM] | Emax [6] [%] | EC50 [7] [nM] | % efficacy, RXR Trans. β [7] |
| --- | --- | --- | --- | --- | --- | --- | --- | --- | --- | --- |
| 280 | 501 | 15000 | CCCN(c1ccc(C(=O)O)cc1)c1cc2c(cc1OCc1ccccc1)C(C)(C)CC=C2C [Compound 147, 4-[(3-Benzyloxy-5 5,8-trimethyl-5,6-dihydronaphthalen-2-yl)-n-propylamino]benzoic acid] | (13) % | 241 | 4800 |  |  |  |  |
|  | 111 | > 1000 | CCCCCCOc1cc2c(cc1N(CC)c1ccc(C(=O)O)cc1)C(C)=CCC2(C)C [Compound 142, 4-[Ethyl-(3-n-hexyloxy-5,5,8-trimethyl-5,6-dihydronaphthalen-2-yl)amino]benzoic Acid] |  | 190 | 1000 |  |  |  |  |
|  | > 1000 | > 10000 | CCCN(c1ccc(C(=O)O)cc1)c1cc2c(cc1C)C(C(C)C)=CCC2(C)C [Compound 54, 4-[n-Propyl-(5-isopropyl-3,8,8-trimethyl-7,8-dihydronaphthalen-2-yl)lamino]benzoic acid] | (85) % | 485 | > 10000 | 378 | 66 | > 1000 | (40) % |
|  | 429 | 2800 | CCCCCCCOc1cc2c(cc1N(CCC)c1ccc(C(=O)O)cc1)C(C)=CCC2(C)C [Compound 146, 4-[(3-n-Heptyloxy-5 5,8-trimethyl-5,6-dihydronaphthalen-2-yl)-n-propylamino]benzoic acid] |  | 206 | 576 |  |  |  |  |
|  | 106 | 8900 | CCCCCCOc1cc2c(cc1N(CC)c1ccc(C(=O)O)cc1)C(C(C)C)=CCC2(C)C [Compound 153, 4-[Ethyl-(3-n-hexyloxy-8-isopropyl-5,5-dimethyl-5,6-dihydronaphthalen-2-yl)amino]benzoic acid] |  | 22 | 4800 |  |  |  |  |
| > 1000 | 475 | 6000 | CCCCCCOc1cc2c(cc1N(CCC)c1ccc(C(=O)O)cc1)C(C)=CCC2(C)C [Compound 145, 4-[(3-n-Hexyloxy-5,5,8-trimethyl-5,6-dihydronaphthalen-2-yl)-n-propylamino]benzoic acid] | (10) % | 229 | 771 |  |  |  |  |
|  | 449 | 8400 | CCCCCCCOc1cc2c(cc1N(CC)c1ccc(C(=O)O)cc1)C(C)=CCC2(C)C [Compound 143, 4[Ethyl-(3-n-heptyloxy-5,5,8-trimethyl-5,6-dihydronaphthalen-2-yl)amino]benzoic acid] |  | 175 | 1700 |  |  |  |  |
| 2 |  |  | CCN(c1ccc2c(c1)C(C(C)(C)C)=CCC2(C)C)c1ccc(C(=O)O)cn1 [Compound 173, 6-[(8-t-Butyl-5,5-dimethyl-5,6-dihydro-naphthalen-2-yl)-ethyl-amino]-nicotinic acid] | (125) % |  |  | 1 | 120 | 9 | (132) % |

| SMILES | EC50 [1] [nM] | Ki [3] [nM] | Ki [5] [nM] | % efficacy, RXR Trans. Y [1] | Ki [2] [nM] | Ki [4] [nM] | EC50 [6] [nM] | Emax [6] [%] | EC50 [7] [nM] | % efficacy, RXR Trans. β [7] |
| --- | --- | --- | --- | --- | --- | --- | --- | --- | --- | --- |
| CCC1=CCC(C)(C)c2cc(C)c(N(CC)c3ccc(C(=O)O)cc3)cc21 [Compound 24, 4-[Ethyl(8-ethyl-3,5,5-trimethyl-5,6-dihydronaphthalen-2-yl)amino]benzoic acid] | 2 | 66 | 13000 | (102) % | 29 | 9100 | 1 | 100 | 10 | (96) % |
| CCC1=CCC(C)(C)c2cc(N(CC)c3ccc(C(=O)O)cc3)c(C)cc21 [Compound 59, 4-[Ethyl(5-ethyl-3,8,8-trimethyl-7,8-dihydronaphthalen-2-yl)amino]benzoic acid] |  |  | > 10000 | (100) % | 282 | > 10000 |  | 100 |  | (100) % |
| Cc1cc2c(cc1N(C)c1ccc(C(=O)O)cc1)C(C)(C)CC=C2C(C)C [Compound 52, 4-[Methyl-(5-isopropyl-3,8,8-trimethyl-7,8-dihydronaphthalen-2-yl)amino]benzoic acid] |  | 2700 | > 10000 | (855) % | 1700 | > 10000 |  | 75 | > 1000 | (25) % |
| CCN(c1ccc(C(=O)O)cc1)c1cc2c(cc1C)C(C(C)C)=CCC2(C)C [Compound 53, 4-[Ethyl-(5-isopropyl-3,8,8-trimethyl-7,8-dihydronaphthalen-2-yl)amino]benzoic acid] |  | > 1000 | > 10000 | (75) % | 1200 | > 10000 |  | 65 | > 1000 | (20) % |
| CCN(c1ccc(C(=O)O)cc1)c1cc2c(cc1C)C(C)(C)CC=C2C [Compound 23, 4-[Ethyl(3,5,5,8-tetramethyl-5,6-dihydronaphthalen-2-yl)amino]benzoic acid] | 41 | 309 |  | (119) % | 8 | 16000 | 21 | 101 | 149 | (101) % |
| CC1=CCC(C)(C)c2cc(N(CC3CC3)c3ccc(C(=O)O)cc3)c(C)cc21 [Compound 47, 4-[Cyclopropylmethyl(3,5,8,8-tetramethyl-7,8-dihydronaphthalen-2-yl)amino]benzoic acid] |  | > 1000 | > 10000 | (70) % | 2500 | > 10000 |  | 65 |  |  |
| CCN(c1ccc(C(=O)O)cc1)c1cc2c(cc1OCc1ccccc1)C(C)(C)CC=C2C [Compound 144, 4-[(3-Benzyloxy-5,5,8-trimethyl-5,6-dihydronaphthalen-2-yl)ethylamino]benzoic acid] |  | 224 | 8100 |  | 77 | 2700 |  |  |  |  |
